≈ marks a conversion by molar mass, not a printed value. Like-named read-outs stand apart in the source and are kept apart here.
Assays:
[1] = test system: M. mycetomatis genome strain MM55; assay: CLSI M38-A2 based in vitro susceptibility screening (XTT or resazurin), growth at fixed concentration; format: cell-based, Madurella mycetomatis; conditions: Madurella mycetomatis
[2] = test system: M. mycetomatis MM55; assay: IC50 determination, 2-fold dilution series 16 to 0.03125 μM; format: cell-based, Madurella mycetomatis
[3] = test system: ten different M. mycetomatis isolates; assay: MIC / MIC50 determination (XTT) in ten M. mycetomatis isolates; format: cell-based, Madurella mycetomatis; conditions: for MIC50 / MIC: Madurella mycetomatis
[4] = test system: M. mycetomatis isolate MM55; assay: M. mycetomatis grain infection model in G. mellonella larvae, survival; format: in vivo, Galleria mellonella; parameters: In vivo efficacy, Larvae survival %: concentration or dose not given beside the values; conditions: for Effect on larvae survival Day 4 (words): day four
[5] = test system: ten different M. mycetomatis isolates; parameters: method as in PMID 24945848, PMID 22964246, PMID 31904836; conditions: asterisk: determined in previous works ref 19-21; cited from earlier work
[6] = mean, read-out: Percentage survival at 25um, 25 uM mean
[7] = replicate A, read-out: Percentage survival at 25um, 25 um A
[8] = replicate B, read-out: Percentage survival at 25um, 25 uM B
[9] = replicate C, read-out: Percentage survival at 25um, 25 uM C
[10] = 100 uM, mean, read-out: Percentage survival at 100um, 100 uM mean
[11] = 100 uM, replicate (first column), read-out: Percentage survival at 100um, 100 uM A
[12] = 100 uM, replicate (second column), read-out: Percentage survival at 100um, 100 uM A
[13] = 100 uM, replicate (third column), read-out: Percentage survival at 100um, 100 uM A
[14] = Madurella mycetomatis, MM55, Table 2, M. mycetomatis MM55, read-out: IC50
[15] = Madurella mycetomatis, MM55, replicate 1, read-out: IC50 1
[16] = Madurella mycetomatis, MM55, replicate 1, read-out: IC90 1
[17] = Madurella mycetomatis, MM55, replicate 2, read-out: IC50 2
[18] = Madurella mycetomatis, MM55, replicate 2, read-out: IC90 2
[19] = Madurella mycetomatis, MM55, replicate 3, read-out: IC50 3
[20] = Madurella mycetomatis, MM55, replicate 3, read-out: IC90 3
[21] = median MIC over ten M. mycetomatis isolates, no asterisk, read-out: MIC50
[22] = isolate CBS247.48, read-out: MIC CBS247.48
[23] = isolate MM14, read-out: MIC MM14
[24] = isolate MM45, read-out: MIC MM45
[25] = isolate MM55, read-out: MIC MM55
[26] = isolate ParijsAl1, read-out: MIC ParijsAl1
[27] = isolate Peru72012, read-out: MIC Peru72012
[28] = 20 μM per larvae, vs infected control
[29] = G. mellonella larvae infected with M. mycetomatis

For `COC(=O)Nc1nc2c(C)cccc2[nH]1` [MMV1782387], the activity at 25 µM [1, 6] was 4.41%, the activity at 25 µM [1, 7] was 0.37% and the activity at 25 µM [1, 8] was 7.58%. For the same compound, the activity at 25 µM [1, 9] was 5.29%, the activity at 100 µM [1, 10] was 15.6% and the activity at 100 µM [1, 11] was 4.59%. For the same compound, the activity at 100 µM [1, 12] was 6.95%, the activity at 100 µM [1, 13] was 35.2% and the “Drug static or cidal” value [2] was “Static”. It also gave an IC50 [2, 14] of 3220 nM, an IC50 ([2]; Madurella mycetomatis, MM55, mean, read-out: IC50 mean) of 3220 nM and an IC90 ([2]; Madurella mycetomatis, MM55, read-out: IC90 mean) greater than 25000 nM. It also gave an IC50 [2, 15] of 2880 nM, an IC90 [2, 16] greater than 25000 nM and an IC50 [2, 17] of 3520 nM. It also gave an IC90 [2, 18] of 6200 nM, an IC50 [2, 19] of 3250 nM and an IC90 [2, 20] greater than 25000 nM. For the same compound, the MIC50 ([3]; Table 3 and Fig 5, benzimidazole carbamates, M. mycetomatis, read-out: MIC50) was 4 µM (≈ 0.821 µg/mL), the MIC50 [3, 21] was 4 µM (≈ 0.821 µg/mL) and the MIC50 ([3]; over the isolates tested, read-out: MIC50 mean) was 4 µM (≈ 0.821 µg/mL). The MIC [3, 22] was 4 µM (≈ 0.821 µg/mL), the MIC [3, 23] was 4 µM (≈ 0.821 µg/mL) and the MIC [3, 24] was 4 µM (≈ 0.821 µg/mL). It also gave an MIC [3, 25] of 4 µM (≈ 0.821 µg/mL), an MIC ([3]; isolate P1, read-out: MIC P1) of 4 µM (≈ 0.821 µg/mL) and an MIC [3, 26] of 4 µM (≈ 0.821 µg/mL). The MIC [3, 27] was 4 µM (≈ 0.821 µg/mL), the MIC ([3]; isolate So1, read-out: MIC So1) was 4 µM (≈ 0.821 µg/mL) and the MIC ([3]; isolate i1, read-out: MIC i1) was 4 µM (≈ 0.821 µg/mL). The MIC ([3]; isolate i11, read-out: MIC i11) was 4 µM (≈ 0.821 µg/mL), the “Larvae survival rate on day ten” value ([4]; 20 μM per larvae at 4, 28, 52 h after infection, day ten) was 28.9% and the “Effect on larvae survival Day 4 (words)” value [4, 28] was “Increase survival”. For the same compound, the “Effect on larvae survival Day 10 (words)” value ([4]; 20 μM per larvae, vs infected control, day ten) was “able to increase larvae survival”, the “In vivo efficacy, Enhanced survival compared to control?” value ([4]; in vivo) was “yes **” and the “In vivo efficacy, Larvae survival %” value ([4]; in vivo) was 28.9%.

`N#C/C(=C1/SC[C@@H](c2ccc(Cl)cc2Cl)S1)n1ccnc1` [MMV1782224, Luliconazole, reference compound] gave an activity at 25 µM ([1]; mean of three, M. mycetomatis MM55, read-out: Percentage survival at 25um, 25 uM mean) of 1.75%, an activity at 25 µM ([1]; replicate A, M. mycetomatis MM55, read-out: Percentage survival at 25um, 25 um A) of -0.617% and an activity at 25 µM ([1]; replicate B, M. mycetomatis MM55, read-out: Percentage survival at 25um, 25 uM B) of 1.37%. For the same compound, the activity at 25 µM ([1]; replicate C, M. mycetomatis MM55, read-out: Percentage survival at 25um, 25 uM C) was 4.51%, the activity at 100 µM ([1]; 100 uM, mean of three, M. mycetomatis MM55, read-out: Percentage survival at 100um, 100 uM mean) was 6.85% and the activity at 100 µM ([1]; 100 uM, replicate 1, M. mycetomatis MM55, read-out: Percentage survival at 100um, 100 uM A (first replicate column)) was -0.151%. The Percent fungal survival at 100 µM ([1]; 100 uM, replicate 2, M. mycetomatis MM55, read-out: Percentage survival at 100um, 100 uM A (second replicate column)) was 8.79%, the activity at 100 µM ([1]; 100 uM, replicate 3, M. mycetomatis MM55, read-out: Percentage survival at 100um, 100 uM A (third replicate column)) was 11.9% and the “Drug static or cidal” value ([2]; M. mycetomatis) was “Cidal”. It also gave an IC50 [2, 14] of less than 20 nM, an IC50 ([2]; Madurella mycetomatis, MM55, mean of replicates, read-out: IC50 mean) of less than 98 nM and an IC90 ([2]; Madurella mycetomatis, MM55, mean of replicates, read-out: IC90 mean) of less than 98 nM. It also gave an IC50 ([2]; Madurella mycetomatis, MM55, replicate 1, read-out: IC50 1 um) of less than 98 nM, an IC90 ([2]; Madurella mycetomatis, MM55, replicate 1, read-out: IC90 1 um) of less than 98 nM and an IC50 ([2]; Madurella mycetomatis, MM55, replicate 2, read-out: IC50 2 um) of less than 98 nM. The IC90 ([2]; Madurella mycetomatis, MM55, replicate 2, read-out: IC90 2 um) was less than 98 nM, the IC50 ([2]; Madurella mycetomatis, MM55, replicate 3, read-out: IC50 3 um) was less than 98 nM and the IC90 ([2]; Madurella mycetomatis, MM55, replicate 3, read-out: IC90 3 um) was less than 98 nM. The IC50 ([2]; Table 2, M. mycetomatis MM55, read-out: IC50) was less than 30 nM, the MIC50 [3, 21] was less than 0.03 µM and the MIC50 ([3]; over the tested M. mycetomatis isolates, read-out: MIC50 mean) was less than 0.0312 µM. The MIC [3, 22] was less than 0.0312 µM, the MIC [3, 23] was less than 0.0312 µM and the MIC [3, 24] was less than 0.0312 µM. It also gave an MIC [3, 25] of less than 0.0312 µM, an MIC ([3]; isolate P1, read-out: MIC P1) of less than 0.0312 µM and an MIC [3, 26] of less than 0.0312 µM. For the same compound, the MIC [3, 27] was less than 0.0312 µM, the MIC ([3]; isolate So1, read-out: MIC So1) was less than 0.0312 µM and the MIC ([3]; isolate i1, read-out: MIC i1) was less than 0.0312 µM. For the same compound, the MIC ([3]; isolate i11, read-out: MIC i11) was less than 0.0312 µM, the “MIC50 (μM)” value ([3]; median MIC over ten M. mycetomatis isolates, no asterisk) was <0.03 (≦0.03) μM and the “Effect on larvae survival Day 4 (words)” value [4, 28] was “prolonged larvae survival”. For the same compound, the “In vivo efficacy, Enhanced survival compared to control?” value [4, 29] was “no” and the “In vivo efficacy, Larvae survival %” value [4, 29] was 11.1%.

`CC(=O)N1CCN(c2ccc(OCC3COC(Cn4ccnc4)(c4ccc(Cl)cc4Cl)O3)cc2)CC1` (centres unmarked) [MMV637533, Ketoconazole, reference compound] gave an activity at 25 µM [1, 6] of -0.0796%, an activity at 25 µM [1, 7] of 1.08% and an activity at 25 µM [1, 8] of -3.63%. It also gave an activity at 25 µM [1, 9] of 2.31%, an activity at 100 µM [1, 10] of 5.46% and an activity at 100 µM [1, 11] of 1.43%. For the same compound, the activity at 100 µM [1, 12] was 7.48%, the activity at 100 µM [1, 13] was 7.47% and the “Drug static or cidal” value [2] was “Cidal”. For the same compound, the IC50 [2, 14] was 70 nM, the IC50 [2, 15] was less than 98 nM and the IC90 [2, 16] was 180 nM. For the same compound, the IC50 [2, 17] was less than 98 nM, the IC90 [2, 18] was less than 98 nM and the IC50 [2, 19] was 380 nM. For the same compound, the IC90 [2, 20] was 1050 nM, the “MIC50” value [5] was 0.13 µM (≈ 0.0691 µg/mL) and the “MIC range” value [5] was 0.06 to 1.9 µM.

Source: publication PMC8815882, “Screening the pandemic response box identified benzimidazole carbamates, Olorofim and ravuconazole as promising drug candidates for the treatment of eumycetoma” (PLoS Neglected Tropical Diseases, 2022)
